According to ChEMBL document CHEMBL4483862, “Open-source discovery of chemical leads for next-generation chemoprotective antimalarials” (2018):

Test system: Plasmodium berghei
Test: Luciferase/luciferin-expressing antifolate-resistant parasites were used to infect a culture of HepG2 cells that were pre-incubated with compounds. Infected hepatocytes emit light due to the luciferase reaction. Assay results are presented as the percent inhibition of light emission compared to control. […]
Type: functional
Conditions: sporozoite; for IC90: read-out: LUCIFERASE INFECTION ASSAY - IC90
[1] = read-out: LUCIFERASE INFECTION ASSAY - IC50

Compound | IC90 [µM] | IC50 [1] [µM] | further results
CC(C)c1ccc(NC(=O)Nc2ccc3nc(-c4ccccn4)nn3c2)cc1 | 4.2 | – | IC50 (HEPG2TOX_HILL_SLOPE 13, HEPG2TOX_R_SQUARED 0.696, PBLUC_HILL_SLOPE 14.3, PBLUC_R_SQUARED 0.36, read-out: LUCIFERASE INFECTION ASSAY - IC50): 3.6 µM
COc1cccc(Nc2nccc3nc(-c4ccc(F)c(F)c4)[nH]c23)c1 | > 10 | – | IC50 (HEPG2TOX_HILL_SLOPE 7.52, HEPG2TOX_R_SQUARED 0.793, PBLUC_HILL_SLOPE 2.32, PBLUC_R_SQUARED 0.606, read-out: LUCIFERASE INFECTION ASSAY - IC50): 4.06 µM
CC(=O)Oc1ccc(-c2ccc(C(=O)OCC(=O)Nc3sccc3C(N)=O)cc2)cc1 | > 10 | – | IC50 (HEPG2TOX_HILL_SLOPE 11.3, HEPG2TOX_R_SQUARED 0.976, PBLUC_HILL_SLOPE 2.77, PBLUC_R_SQUARED 0.661, read-out: LUCIFERASE INFECTION ASSAY - IC50): 5.01 µM
CCCn1c(NC(=O)C2CCN(c3ccc4nnc(C(F)(F)F)n4n3)CC2)nc2ccccc21 | > 10 | 6.49 | –
Cc1cccc(NC(=S)Nc2cn(-c3ccccc3)nc2-c2ccc(Br)cc2)c1C | > 10 | – | IC50 (FFLUC_HILL_SLOPE 12, FFLUC_R_SQUARED 0.538, PBLUC_HILL_SLOPE 15.7, PBLUC_R_SQUARED 0.516, read-out: LUCIFERASE INFECTION ASSAY - IC50): 9.52 µM
COc1cc(C(=O)NCCN(C(C)C)C(C)C)cc(OC)c1C | > 10 | > 10 | –
CC(C)Cc1nc(N2CCN(C(=O)c3ccco3)CC2)c(C#N)c2c1CCCC2 | 3.93 | 3.18 | –
CC1(NC(=O)COC(=O)c2cc(Cl)c3c(c2)OCO3)CCS(=O)(=O)C1 (stereo not drawn) | > 10 | > 10 | –
COc1ccc(CCN2C(=O)CS/C2=N\c2ccc(C)cc2C)cc1OC | > 8.58 | – | IC50 (FFLUC_HILL_SLOPE 11.8, FFLUC_R_SQUARED 0.0733, HEPG2TOX_HILL_SLOPE 1.46, HEPG2TOX_R_SQUARED 0.879, PBLUC_HILL_SLOPE 2.1, PBLUC_R_SQUARED 0.331, read-out: LUCIFERASE INFECTION ASSAY - IC50): 6.08 µM
CN(Cc1nccn1C(F)F)c1ncnc2sccc12 | > 10 | > 10 | –
CSc1sc(-c2nc(C(C)(C)C)cs2)c(C)c1C(C)=O | > 10.1 | > 10.1 | –
Cc1ccc(NS(=O)(=O)c2cccc(C(=O)OC(C)C(=O)c3cc(C)n(-c4ccc(Cl)cc4)c3C)c2)cc1 (stereo not drawn) | 3.6 | – | IC50 (HEPG2TOX_HILL_SLOPE 1.57, HEPG2TOX_R_SQUARED 0.97, PBLUC_HILL_SLOPE 17.7, PBLUC_R_SQUARED 0.634, read-out: LUCIFERASE INFECTION ASSAY - IC50): 3.18 µM
COc1ccc(C(=O)Nc2nc3ccccc3[nH]2)cc1 | > 10 | – | IC50 (HEPG2TOX_HILL_SLOPE 4.46, HEPG2TOX_R_SQUARED 0.552, PBLUC_HILL_SLOPE 2.95, PBLUC_R_SQUARED 0.511, read-out: LUCIFERASE INFECTION ASSAY - IC50): 7.58 µM
Cc1cc(C)nc(N/N=C2/CCCC/C2=C\c2ccccc2)n1 | > 10 | > 10 | –
O=[N+]([O-])c1ccc(NN=C2CCSC2)c(S(=O)(=O)Nc2ccc(Cl)cc2)c1 | > 10 | > 10 | –
CSc1sc(C(=O)N/N=C/c2ccc(Cl)cc2)c2c1C1(CCC2)SCCS1 | > 7.25 | > 7.25 | –
COc1ccccc1C1=NOC(=C2Sc3ccccc3C2=O)N1 | 4.54 | – | IC50 (PBLUC_HILL_SLOPE 8.91, PBLUC_R_SQUARED 0.334, read-out: LUCIFERASE INFECTION ASSAY - IC50): 3.55 µM
Cc1ccc(-n2nc(-c3ccc(OC(F)(F)F)cc3)cc2NC(=O)Nc2ccc(OC(F)(F)F)cc2)cc1C | > 6 | – | IC50 (FFLUC_HILL_SLOPE 0.93, FFLUC_R_SQUARED 0.122, PBLUC_HILL_SLOPE 17.9, PBLUC_R_SQUARED 0.245, read-out: LUCIFERASE INFECTION ASSAY - IC50): 5.99 µM
C#CCSc1nc2ccc(Cl)cc2c(=O)n1-c1cc(OC(C)C)c(Cl)cc1Cl | > 7.27 | – | IC50 (FFLUC_HILL_SLOPE 5.89, FFLUC_R_SQUARED 0.859, HEPG2TOX_HILL_SLOPE 0.407, HEPG2TOX_R_SQUARED 0.572, PBLUC_HILL_SLOPE 3.96, PBLUC_R_SQUARED 0.341, read-out: LUCIFERASE INFECTION ASSAY - IC50): 5.27 µM
Fc1cccc(-n2ccnc2SCc2nc3ccccc3s2)c1 | > 10 | – | IC50 (PBLUC_HILL_SLOPE 1.97, PBLUC_R_SQUARED 0.394, read-out: LUCIFERASE INFECTION ASSAY - IC50): 6.86 µM
CC(C)c1ccc(C2C3CCc4ccccc4C3=NN2CCO)cc1 (stereo not drawn) | 1.32 | – | IC50 (PBLUC_HILL_SLOPE 1.49, PBLUC_R_SQUARED 0.685, read-out: LUCIFERASE INFECTION ASSAY - IC50): 0.301 µM
CCOc1c(Cl)cc(C2CC(=O)N(Cc3ccccc3)c3nc4ccccc4n32)cc1OC (stereo not drawn) | > 10 | – | IC50 (HEPG2TOX_HILL_SLOPE 5.74, HEPG2TOX_R_SQUARED 0.547, PBLUC_HILL_SLOPE 2.97, PBLUC_R_SQUARED 0.551, read-out: LUCIFERASE INFECTION ASSAY - IC50): 5.06 µM

Compound | IC90 [µM] | IC50 [1] [µM] | further results
CCNc1ccc(C(=O)OCC)cc1NC(=O)c1cccc(N(C)C)c1 | 2.65 | – | IC50 (HEPG2TOX_HILL_SLOPE 1.36, HEPG2TOX_R_SQUARED 0.981, PBLUC_HILL_SLOPE 2.44, PBLUC_R_SQUARED 0.636, read-out: LUCIFERASE INFECTION ASSAY - IC50): 1.08 µM
C(=C\c1cn2c(-c3cccnc3)cnc2cn1)/c1ccccc1 | > 11.1 | – | IC50 (HEPG2TOX_HILL_SLOPE 0.303, HEPG2TOX_R_SQUARED 0.424, PBLUC_HILL_SLOPE 9.4, PBLUC_R_SQUARED 0.254, read-out: LUCIFERASE INFECTION ASSAY - IC50): 8.93 µM
CC(=O)Nc1cccc(-c2cn3c(-c4ccc(CO)cc4)cnc3cn2)c1 | > 9.21 | – | IC50 (PBLUC_HILL_SLOPE 4.55, PBLUC_R_SQUARED 0.47, read-out: LUCIFERASE INFECTION ASSAY - IC50): 6.15 µM
C(=N\c1nc2ccccc2nc1N1CCOCC1)/N1CCN(C(c2ccccc2)c2ccccc2)CC1 | > 10 | > 10 | –
Cc1ccc(C2(c3ccccc3)NC(=O)N(CC(=O)c3cccs3)C2=O)cc1C (stereo not drawn) | 6.65 | – | IC50 (FFLUC_HILL_SLOPE 12.5, FFLUC_R_SQUARED 0.056, HEPG2TOX_HILL_SLOPE 0.321, HEPG2TOX_R_SQUARED 0.0152, PBLUC_HILL_SLOPE 3.37, 16.8, PBLUC_R_SQUARED 0.316, 0.669, read-out: LUCIFERASE INFECTION ASSAY - IC50): 4.11 µM
NS(=O)(=O)c1ccc(CCNc2nn3c(-c4cccs4)cnc3s2)cc1 | > 8.14 | – | IC50 (HEPG2TOX_HILL_SLOPE 6.48, HEPG2TOX_R_SQUARED 0.0577, read-out: LUCIFERASE INFECTION ASSAY - IC50): > 8.14 µM
CCc1cc(=O)n2nc(Cc3ccccc3)c(-c3ccccc3)c2[nH]1 | > 10 | – | IC50 (HEPG2TOX_HILL_SLOPE 8.68, HEPG2TOX_R_SQUARED 0.27, PBLUC_HILL_SLOPE 11.4, PBLUC_R_SQUARED 0.149, read-out: LUCIFERASE INFECTION ASSAY - IC50): 8.75 µM
CS(=O)(=O)c1ncc(Cl)c(C(=O)C(C#N)c2ccc3ccccc3n2)n1 (stereo not drawn) | 4.88 | – | IC50 (HEPG2TOX_HILL_SLOPE 3.45, HEPG2TOX_R_SQUARED 0.508, PBLUC_HILL_SLOPE 8.67, PBLUC_R_SQUARED 0.634, read-out: LUCIFERASE INFECTION ASSAY - IC50): 3.78 µM
Cc1cccc(C)c1-n1nnnc1Sc1nc(CN2CCOCC2)nc2sc(C)c(C)c12 | > 10 | – | IC50 (HEPG2TOX_HILL_SLOPE 14.5, 28.4, HEPG2TOX_R_SQUARED 0.890, 0.649, PBLUC_HILL_SLOPE 85.3, 7.09, PBLUC_R_SQUARED 0.147, 0.386, read-out: LUCIFERASE INFECTION ASSAY - IC50): 8.67 µM
CC(C)c1ccccc1NC(=O)Nc1nc(C(N)Cc2ccc(Cl)cc2)cs1 (stereo not drawn) | > 7.95 | – | IC50 (PBLUC_HILL_SLOPE 4.88, PBLUC_R_SQUARED 0.323, read-out: LUCIFERASE INFECTION ASSAY - IC50): 5.13 µM
CN(Cc1ccc(Cl)cc1Cl)C(=O)c1ccc(NC(=O)C2CC2)cc1 | > 10 | – | IC50 (FFLUC_HILL_SLOPE 0.429, FFLUC_R_SQUARED 0.32, PBLUC_HILL_SLOPE 3.47, PBLUC_R_SQUARED 0.753, read-out: LUCIFERASE INFECTION ASSAY - IC50): 6.88 µM
CCOc1ccc(C(=O)CCC(=O)O)cc1 | > 14.8 | > 14.8 | –
N#CC(Nc1ccc(C(F)(F)F)cc1)c1ccccc1 (stereo not drawn) | > 11.9 | > 11.9 | –
CCCCn1c(SCc2cc(=O)oc3cc(C)c(C(C)C)cc23)nc2cc(S(N)(=O)=O)ccc21 | > 10 | > 10 | –
Oc1ccccc1Nc1nc(NCc2ccccc2)c2ccccc2n1 | > 8.71 | 2.58 | –
c1ccc(CCCNc2nnnn2-c2ccccc2)cc1 | > 10 | – | IC50 (PBLUC_HILL_SLOPE 1.25, PBLUC_R_SQUARED 0.199, read-out: LUCIFERASE INFECTION ASSAY - IC50): 6.08 µM
CN(C)C(S)=Nc1ccc(Cl)cc1 | > 15.4 | > 15.4 | –
O=C(Nc1ccc(Oc2ccccc2)cc1)C1=CN2CCN(Cc3ccccc3)C(=O)N=C2O1 | > 10 | > 10 | –
NC(=O)C1CCN(c2nc(-c3cccs3)nc3sc4c(c23)CCCC4)CC1 | > 10 | > 10 | –
Cc1nn2c(=O)cc(C(C)C)[nH]c2c1-c1ccc(F)cc1 | > 11.6 | > 11.6 | –
COc1ccc(OCCN(C)C(=O)c2ccc(-n3cccn3)cc2)cc1 | > 10 | > 10 | –
CCCn1c(SCC2=C(C(=O)OCC)C(C)NC(=O)N2)nc2sc3c(c2c1=O)CCC(C(C)(C)CC)C3 (stereo not drawn) | > 10 | > 10 | –
